Experiments:
Type in all cases: cell-based
HER2 YVMA = target: T1, HER2 YVMA (Homo sapiens, UniProt P04626, INS775YVMA); assay: pHER2 (ERBB2) YVMA assay: phosphorylation of HER2 YVMA at Tyr1221/1222 in HEK cells (AlphaScreen Surefire); conditions: doxycycline induced, 4 h with compound
T1 construct: expressed in transfected cells; host or cells: human HEK cells, retroviral transduction, doxycycline-inducible expression
Protocol: For the assay, HEK HER2 YVMA cells are seeded in MEM medium with 10% FBS. 4 hours prior to compound addition, HER2 YVMA expression is induced using 1 μg/mL Doxycycline. […] Subsequently, 60.000 cells/well in 60 μL are added. Cells are incubated with compound for 4 h at 37° C. […] The mixture is incubated at a temperature of 20-25° C. with shaking (700 rpm) for 20 min. After centrifugation, 4 μL of the lysate are transferred to Proxiplates. […] Plates are shaken for 1 min (1400 rpm) and incubated for 2 h at a temperature of 20-25° C. in the dark. […] Plates are shaken for 1 min (1400 rpm) and incubated for 2 h at a temperature of 20-25° C. in the dark. Plates are subsequently analyzed using an Envision reader platform. […] IC50 values are computed from these values in the MEGASTAR IC50 application using a 4 parametric logistic model. […] The results of the assay are provided as IC50 values.

EGFR wild type (WT) = target: T2, EGFR wild type (WT) (Homo sapiens, UniProt P00533); assay: pEGFR assay: phosphorylation of EGFR at Tyr1068 in HEK cells expressing EGFR WT (AlphaScreen Surefire); conditions: 4 h with compound
T2 construct: expressed in transfected cells; host or cells: human HEK cells (ATCC CRL-1573), retroviral transduction
T2 sequence (P00533 25-1210): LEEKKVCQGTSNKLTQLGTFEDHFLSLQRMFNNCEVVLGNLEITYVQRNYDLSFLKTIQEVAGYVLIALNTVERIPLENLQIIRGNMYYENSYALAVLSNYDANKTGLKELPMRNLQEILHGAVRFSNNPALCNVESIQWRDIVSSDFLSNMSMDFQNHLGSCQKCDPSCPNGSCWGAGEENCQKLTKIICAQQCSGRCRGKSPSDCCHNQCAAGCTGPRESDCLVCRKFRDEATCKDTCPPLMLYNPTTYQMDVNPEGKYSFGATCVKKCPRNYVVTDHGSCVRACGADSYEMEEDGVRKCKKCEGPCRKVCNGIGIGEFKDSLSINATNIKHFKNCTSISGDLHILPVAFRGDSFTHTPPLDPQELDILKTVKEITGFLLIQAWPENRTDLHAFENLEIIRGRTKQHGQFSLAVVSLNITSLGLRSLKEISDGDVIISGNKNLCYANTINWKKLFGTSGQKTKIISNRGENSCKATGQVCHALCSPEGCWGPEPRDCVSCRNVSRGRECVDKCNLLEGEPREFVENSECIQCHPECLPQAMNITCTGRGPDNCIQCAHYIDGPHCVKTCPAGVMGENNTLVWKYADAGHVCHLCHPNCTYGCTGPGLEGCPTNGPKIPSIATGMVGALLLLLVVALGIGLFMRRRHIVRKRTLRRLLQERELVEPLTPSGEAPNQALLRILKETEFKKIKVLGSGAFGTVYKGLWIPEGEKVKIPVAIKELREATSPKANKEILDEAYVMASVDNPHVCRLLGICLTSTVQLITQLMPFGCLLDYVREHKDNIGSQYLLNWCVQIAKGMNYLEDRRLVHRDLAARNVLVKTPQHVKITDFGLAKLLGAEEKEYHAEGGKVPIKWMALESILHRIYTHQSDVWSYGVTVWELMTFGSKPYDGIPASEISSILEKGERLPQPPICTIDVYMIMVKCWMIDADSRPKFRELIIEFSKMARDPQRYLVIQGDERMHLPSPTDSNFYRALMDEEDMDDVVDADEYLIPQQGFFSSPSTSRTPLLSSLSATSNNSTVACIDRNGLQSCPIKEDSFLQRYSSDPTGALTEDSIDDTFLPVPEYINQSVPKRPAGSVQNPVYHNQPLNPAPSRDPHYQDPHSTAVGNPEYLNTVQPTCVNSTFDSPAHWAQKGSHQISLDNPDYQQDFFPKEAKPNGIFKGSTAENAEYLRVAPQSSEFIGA
Protocol: This assay quantifies the phosphorylation of EGFR at Tyr1068 and is used to measure the inhibitory effect of compounds on the transgenic EGFR wild type (WT) protein expressed in HEK cells.
Transduced cells are selected using puromycin. p-EGFR Tyr1068 is determined using the AlphaScreen Surefire pEGF Receptor (Tyr1068) Assay (PerkinElmer, TGRERS). For the assay, HEK EGFR WT cells are seeded in MEM medium with 10% FBS. […] Subsequently, 60.000 cells/well in 60 μL are added. Cells are incubated with compound for 4 h at 37° C. […] The mixture is incubated at a temperature of 20-25° C. with shaking (700 rpm) for 20 min. After centrifugation, 4 μL of the lysate are transferred to Proxiplates. […] Plates are shaken for 1 min (1400 rpm) and incubated for 2 h at a temperature of (20-25° C.) in the dark. […] Plates are shaken for 1 min (1400 rpm) and incubated for 2 h at a temperature of (20-25° C.) in the dark. Plates are subsequently analyzed using an Envision reader platform. […] IC50 values are computed from these values in the MEGASTAR IC50 application using a 4 parametric logistic model.
This cellular phospho-EGFR (pEGFR) compound dose-response assay quantifies the phosphorylation of EGFR at Tyr1068 in HEK cells expressing EGFR WT. The results of the assay are provided as IC50 values.

[1] = system: NCI-H2170 (HER2 wild type) cells; assay: Tumor cell line proliferation assay, NCI-H2170 (HER2 wild type), CellTiter-Glo; conditions: Homo sapiens, 72 h, read-out: GI50 NCI H-2170 HER2 wt amp.
Protocol: (§1) For proliferation assays, NCI-H2170 (HER2 wild type), NCI-H2170 HER2 YVMA and EGFR WT dependent A431 cells are used. NCI-H2170 HER2 YVMA or NCI-H2170 cells are seeded into 96-well plates at 750 cells/60 μL in growth media (RPMI ATCC+10% FCS, +Penicillin/Streptomycin). […] Compounds are added by using a HP D3000 Digital Dispenser one day after plating the cells. All treatments are performed in technical triplicates. Treated cells are incubated for 72 h at 37° C. with 5% CO2. CellTiter-Glo® Luminescent Cell Viability Assay (Promega) is performed and chemoluminescence is measured by using the multilabel Plate Reader VICTOR X4. The raw data are imported into and analyzed with the Boehringer Ingelheim proprietary software MegaLab (curve fitting based on the program PRISM, GraphPad Inc.).

[2] = system: NCI-H2170 HER2 YVMA cells; assay: Tumor cell line proliferation assay, NCI-H2170 HER2 YVMA, CellTiter-Glo; conditions: Homo sapiens, 72 h, read-out: GI50 NCI H-2170 HER2 YVMA
Source text: HER2 YVMA Tumor Cell Line Model Generation and Proliferation Assays
Homology-directed genome engineering is employed to insert a 12 nucleotide sequence encoding YVMA into Exon 20 of the genomic HER2 locus in NCI-H2170 cells. […] The DNA template containing the HER2 exon 20 YVMA insertion variant was obtained from GenScript. PCR followed by Sanger sequencing is used to confirm the presence of the 12-nucleotide insertion in HER2 Exon 20 resulting in the YVMA amino acid duplication.
as §1

[3] = system: EGFR WT dependent A431 cells; assay: Tumor cell line proliferation assay, EGFR WT dependent A431 cells, CellTiter-Glo; conditions: Homo sapiens, A-431, 72 h, read-out: GI50 A431 EGFR wt amp.
Protocol: as §1

Ba/F3 cells HER2 WT = assay: Ba/F3 proliferation assay, HER2 WT, CellTiter-Glo; conditions: Mus musculus, BaF3, 72 h
Protocol: (§2) Ba/F3 Cell Model Generation and Proliferation Assays
(§3) Plasmids containing HER2 mutants and EGFR WT were obtained from GeneScript. To generate EGFR/HER2-dependent Ba/F3 models, Ba/F3 cells are transduced with retroviruses containing vectors that harbor EGFR WT, HER2 WT or HER2 mutants (YVMA). Platinum-E cells (Cell Biolabs) are used for retrovirus packaging. Retrovirus is added to Ba/F3 cells. To ensure infection, 4 μg/mL polybrene is added and cells are spin-infected. Infection efficiency is confirmed by measuring GFP-positive cells using a cell analyzer. Cells with an infection efficiency of 10% to 20% are further cultivated and puromycin selection with 1 μg/mL is initiated. As a control, parental Ba/F3 cells are used to assess the selection status. Selection is considered successful when parental Ba/F3 cells cultures die. To evaluate the transforming potential of HER2 mutations, the growth medium is no longer supplemented with IL-3. Ba/F3 cells harboring the empty vector are used as a control. A switch from IL-3 to EGF is performed for Ba/F3 cells expressing EGFR WT known for its dependency on EGF ligand. Approximately ten days before conducting the experiments, puromycin is left out. For proliferation assays (data in tables 10 and 12), Ba/F3 cells are seeded into 96-well plates at 5×10^3 cells/100 μL in growth media. Compounds are added by using a HP D3000 Digital Dispenser. All treatments are performed in technical triplicates. Treated cells are incubated for 72 h at 37° C. with 5% CO2. A CellTiter-Glo® Luminescent Cell Viability Assay (Promega) is performed and chemoluminescence is measured by using the multilabel Plate Reader VICTOR X4. The raw data are imported into and analyzed with the Boehringer Ingelheim proprietary software MegaLab (curve fitting based on the program PRISM, GraphPad Inc.).

[4] = system: Ba/F3 cells HER2 mutants (YVMA); assay: Ba/F3 proliferation assay, HER2 YVMA, CellTiter-Glo; conditions: Mus musculus, BaF3, 72 h
Protocol: as §2, §3

[5] = system: Ba/F3 cells expressing EGFR WT; assay: Ba/F3 proliferation assay, EGFR WT (EGF dependent), CellTiter-Glo; conditions: Mus musculus, BaF3, EGF instead of IL-3, 72 h, read-out: GI50 BAF3 EGF dep.
Protocol: as §2, §3

T1 sequence (P04626 with tags, fused parts or gaps INS775YVMA): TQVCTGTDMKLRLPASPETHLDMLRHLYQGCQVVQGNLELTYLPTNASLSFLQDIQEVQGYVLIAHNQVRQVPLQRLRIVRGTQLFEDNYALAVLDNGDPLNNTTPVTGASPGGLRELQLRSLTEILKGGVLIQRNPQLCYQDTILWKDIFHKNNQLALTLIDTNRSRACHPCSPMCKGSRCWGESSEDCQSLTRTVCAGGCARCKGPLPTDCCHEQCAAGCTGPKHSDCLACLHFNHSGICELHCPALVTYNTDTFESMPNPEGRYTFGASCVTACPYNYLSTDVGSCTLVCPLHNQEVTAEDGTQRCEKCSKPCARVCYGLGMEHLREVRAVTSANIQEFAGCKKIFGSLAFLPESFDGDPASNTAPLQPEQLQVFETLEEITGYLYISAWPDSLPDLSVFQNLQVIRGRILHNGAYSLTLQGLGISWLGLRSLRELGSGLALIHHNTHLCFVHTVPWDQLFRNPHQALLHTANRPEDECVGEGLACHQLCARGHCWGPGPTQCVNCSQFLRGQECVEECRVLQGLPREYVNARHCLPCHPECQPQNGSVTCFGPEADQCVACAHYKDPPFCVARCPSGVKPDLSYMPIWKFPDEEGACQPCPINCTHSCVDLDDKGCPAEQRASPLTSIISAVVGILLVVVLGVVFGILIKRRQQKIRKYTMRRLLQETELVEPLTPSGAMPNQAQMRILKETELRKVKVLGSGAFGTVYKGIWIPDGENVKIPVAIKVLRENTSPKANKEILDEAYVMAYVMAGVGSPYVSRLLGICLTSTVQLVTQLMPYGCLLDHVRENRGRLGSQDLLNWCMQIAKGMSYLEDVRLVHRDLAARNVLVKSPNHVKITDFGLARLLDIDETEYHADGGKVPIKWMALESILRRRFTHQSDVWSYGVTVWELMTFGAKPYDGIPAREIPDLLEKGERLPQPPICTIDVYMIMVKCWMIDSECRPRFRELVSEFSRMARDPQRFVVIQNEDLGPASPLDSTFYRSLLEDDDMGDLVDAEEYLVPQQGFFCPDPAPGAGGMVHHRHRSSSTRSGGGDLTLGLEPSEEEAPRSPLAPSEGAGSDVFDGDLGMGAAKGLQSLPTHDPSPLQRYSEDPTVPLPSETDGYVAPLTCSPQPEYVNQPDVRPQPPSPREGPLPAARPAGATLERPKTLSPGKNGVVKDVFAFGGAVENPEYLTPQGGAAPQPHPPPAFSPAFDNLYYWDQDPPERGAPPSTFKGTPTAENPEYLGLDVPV

Row | IC50 (HER2 YVMA) | IC50 (EGFR wild type (WT)) | GI50 [3] | GI50 (Ba/F3 cells HER2 WT) | GI50 [4] | GI50 [5] | Compound | GI50 [1] | GI50 [2]
1 | 16 nM | 230 nM | > 5000 nM | 2 nM | 18 nM | 1750 nM | C=CC(=O)NC1CCN(c2ncc3ncnc(Nc4ccc(Oc5ccn6ccnc6c5)c(C)c4)c3n2)CC1 [Example I-12] | 8 nM | 71 nM
2 | 28 nM | 429 nM | > 5000 nM | 1 nM | 32 nM | > 2000 nM | C=CC(=O)NC1CN(c2ncc3ncnc(Nc4ccc(Oc5cnc6c(c5)ncn6C)c(C)c4)c3n2)C1 [Example I-13] | 19 nM | 82 nM
3 | 11 nM | 73 nM | > 2000 nM | 2 nM | 17 nM | 756 nM | C=CC(=O)N1CCC(Nc2ncc3ncnc(Nc4ccc(Oc5ccc6c(c5)ncn6C)c(C)c4)c3n2)CC1 [Example I-14] | 10 nM | 37 nM
4 | 12 nM | 86 nM | 948 nM | 2 nM | 18 nM | 425 nM | C#Cc1cc(Nc2ncnc3cnc(NC4CCN(C(=O)C=C)CC4)nc23)ccc1Oc1ccc2c(c1)ncn2C [Example I-15] | 13 nM | 44 nM
5 | 5 nM | 23 nM | 660 nM | 1 nM | 10 nM | 375 nM | C=CC(=O)N1CCC(Nc2ncc3ncnc(Nc4ccc(Oc5ccn6ncnc6c5)c(C)c4)c3n2)CC1 [Example I-16] | 4 nM | 19 nM
6 | 2 nM | 94 nM | > 2000 nM | 2 nM | 14 nM | 1100 nM | C=CC(=O)N1CC[C@H](Nc2ncc3ncnc(Nc4ccc(Oc5ccn6ncnc6c5)c(C)c4)c3n2)C1 [Example I-17] | 9 nM | 39 nM
7 | 8 nM | 41 nM | 752 nM | 2 nM | 11 nM | 206 nM | C=CC(=O)N1CC(Nc2ncc3ncnc(Nc4ccc(Oc5ccn6ncnc6c5)c(C)c4)c3n2)C1 [Example I-19] | 8 nM | 34 nM
8 | 4 nM | 1410 nM | 4220 nM | 10 nM | 338 nM | 2970 nM | Cc1cc(Nc2ncnc3ccc(NC4=NC(C)(C)CO4)cc23)ccc1Oc1ccn2ncnc2c1 [Tucatinib, reference compound] | 58 nM | 798 nM
9 | 11 nM | 7 nM | 16 nM | 3 nM | 14 nM | 13 nM | C=CC(=O)Nc1cccc(-n2c(=O)c(Oc3ccc(F)cc3F)cc3cnc(Nc4cnn(C)c4)nc32)c1 [WO 2019/046775 Comp. 2, reference compound] | 22 nM | 34 nM
